Source: ChEMBL document CHEMBL3603790, “2- and 3-Fluoro-3-deazaneplanocins, 2-fluoro-3-deazaaristeromycins, and 3-methyl-3-deazaneplanocin: Synthesis and antiviral properties” (Bioorg Med Chem, 2015)
Activity calls are given as the source filed them. The calls are words filed in the database; no cut-off is given here.

Tests used:
Rift Valley fever virus = assay: Antiviral activity against Rift Valley fever virus infected in African green monkey Vero 76 cells after 3 days by neutral red dye-based plaque reduction assay; assay type: functional, organism-based
Tacaribe virus = assay: Antiviral activity against Tacaribe virus infected in African green monkey Vero 76 cells after 3 days by neutral red dye-based plaque reduction assay; assay type: functional, organism-based; details: Mammarenavirus tacaribeense
Dengue virus = assay: Antiviral activity against Dengue virus infected in African green monkey Vero cells after 3 days by neutral red dye-based plaque reduction assay; assay type: functional, organism-based
Measles morbillivirus = assay: Antiviral activity against Measles virus infected in African green monkey CV1 cells after 3 days by neutral red dye-based plaque reduction assay; assay type: functional, organism-based; details: CV-1, 72 h
Vero = assay: (§1) Cytotoxicity against African green monkey Vero cells; assay type: cell-based; details: chlorocebus sabaeus, vero
[1] = Cytotoxicity against African green monkey Vero 76 cells; assay type: cell-based; details: chlorocebus sabaeus, vero 76
[2] = Cytotoxicity against African green monkey CV1 cells; assay type: cell-based, CV-1; details: chlorocebus aethiops
[3] = Selectivity index, ratio of CC50 for African green monkey CV1 cells to IC50 for Measles virus; assay type: functional, CV-1
West Nile virus = assay: Antiviral activity against WNV infected in African green monkey Vero 76 cells after 3 days by neutral red dye-based plaque reduction assay; assay type: functional, organism-based
Vaccinia virus = assay: Antiviral activity against Vaccinia virus infected in HEL cells after 3 days by neutral red dye-based plaque reduction assay; assay type: functional, organism-based; details: Orthopoxvirus vaccinia
[4] = test system: Respiratory syncytial virus; assay: Antiviral activity against Respiratory syncytial virus infected in human HeLa cells after 3 days by neutral red dye-based plaque reduction assay; assay type: functional, organism-based
[5] = test system: Respiratory syncytial virus; assay: Antiviral activity against Respiratory syncytial virus infected in monkey MA104 cells after 3 days by neutral red dye-based plaque reduction assay; assay type: functional, organism-based
[6] = test system: Venezuelan equine encephalitis virus; assay: Antiviral activity against Venezuelan equine encephalitis virus infected in African green monkey Vero cells after 3 days by neutral red dye-based plaque reduction assay; assay type: functional, organism-based
Hepatitis C virus = assay: Antiviral activity against Hepatitis C virus infected in human Ava5 cells after 3 days by neutral red dye-based plaque reduction assay; assay type: functional, organism-based; details: Hepacivirus hominis
HEL = assay: Cytotoxicity against HEL cells; assay type: cell-based; details: human
[7] = Cytotoxicity against monkey MA104 cells; assay type: cell-based, Macaca mulatta; details: rhesus monkey
[8] = Cytotoxicity against human Ava5 cells; assay type: cell-based
[9] = Inhibition of rabbit erythrocytic AdoHcy hydrolase using AdoHcy as substrate assessed as formation of L-homocysteine preincubated for 5 mins followed by substrate addition measured after 1 hr by thiol quantitation reagent-based assay; parameters: species or system Oryctolagus cuniculus
HeLa = assay: Cytotoxicity against human HeLa cells; assay type: cell-based
Yellow fever virus = assay: Antiviral activity against Yellow fever virus infected in African green monkey Vero cells after 3 days by neutral red dye-based plaque reduction assay; assay type: functional, organism-based; details: 72 h
[10] = as §1; assay type: cell-based; details: chlorocebus sabaeus, Vero cells
MDCK = assay: Cytotoxicity against MDCK cells; assay type: cell-based, Canis lupus familiaris; details: dog, mdck
[11] = Selectivity index, ratio of CC50 for African green monkey Vero cells to IC50 for Yellow fever virus; assay type: functional
Cowpox virus = assay: Antiviral activity against Cowpox virus infected in HFF after 3 days by neutral red dye-based plaque reduction assay; assay type: functional, organism-based
Influenza A virus = assay: Antiviral activity against Influenza A virus H1N1 infected in MDCK cells after 3 days by neutral red dye-based plaque reduction assay; assay type: functional, organism-based
SARS-CoV = assay: Antiviral activity against SARS coronavirus infected in African green monkey Vero E6 cells after 3 days by neutral red dye-based plaque reduction assay; assay type: functional, organism-based; details: Severe acute respiratory syndrome-related coronavirus
Human alphaherpesvirus 1 = assay: Antiviral activity against Human herpesvirus 1 infected in HEL cells after 3 days by neutral red dye-based plaque reduction assay; assay type: functional, organism-based
Human alphaherpesvirus 2 = assay: Antiviral activity against Human herpesvirus 2 infected in HEL cells after 3 days by neutral red dye-based plaque reduction assay; assay type: functional, organism-based
Enterovirus C = assay: Antiviral activity against Poliovirus infected in monkey LLC-MK2 cells after 3 days by neutral red dye-based plaque reduction assay; assay type: functional, organism-based
Chikungunya virus = assay: Antiviral activity against Chikungunya virus infected in African green monkey Vero 76 cells after 3 days by neutral red dye-based plaque reduction assay; assay type: functional, cell-based
Enterovirus A71 = assay: Antiviral activity against Enterovirus 71 infected in monkey LLC-MK2 cells after 3 days by neutral red dye-based plaque reduction assay; assay type: functional, organism-based
Cytomegalovirus = assay: Antiviral activity against Cytomegalovirus infected in HEL cells after 3 days by neutral red dye-based plaque reduction assay; assay type: functional, organism-based
Pichinde virus = assay: Antiviral activity against Pichinde virus infected in African green monkey Vero cells after 3 days by neutral red dye-based plaque reduction assay; assay type: functional, organism-based
Human papillomavirus = assay: Antiviral activity against Human papillomavirus infected in HEK293 cells after 3 days by neutral red dye-based plaque reduction assay; assay type: functional, organism-based
LLC-MK2 = assay: Cytotoxicity against monkey LLC-MK2 cells; assay type: cell-based, Macaca mulatta; details: rhesus monkey
HEK293 = assay: Cytotoxicity against HEK293 cells; assay type: cell-based; details: human
[12] = Cytotoxicity against African green monkey Vero E6 cells; assay type: cell-based; details: chlorocebus sabaeus

Row | Structure (SMILES) | Activity (Rift Valley fever virus) | Activity (Tacaribe virus) | Activity (Dengue virus) | IC50 (Measles morbillivirus) [µM] | Activity [1] | CC50 [2] [µM] | Ratio CC50/IC50 [3] | Activity (West Nile virus) | Activity (Vaccinia virus) | Activity [4] | Activity [5] | Activity [6] | Activity (Hepatitis C virus) | Activity (HEL) | Activity [7] | Activity [8] | IC50 [9] [µM] | Activity (HeLa) | also measured
1 | Nc1nc(F)cc2c1ncn2[C@@H]1C[C@H](CCO)[C@@H](O)[C@H]1O | inactive | inactive | inactive | 162 | Non-toxic | > 338 | >2.1 | inactive | inactive | inactive | inactive | inactive | inactive | Non-toxic | Non-toxic | Non-toxic | 3.75 | Non-toxic | Activity (Vero): Non-toxic
2 | Nc1nc(F)cc2c1ncn2[C@@H]1C[C@H](O)[C@@H](O)[C@H]1O | inactive | inactive | inactive | 30.2 | Non-toxic | > 100 | >3 | inactive | inactive | inactive | inactive | inactive | inactive | Non-toxic | Non-toxic | Non-toxic | 1 | Non-toxic | IC50 (Yellow fever virus): 15 µM; CC50 [10]: > 100 µM; Activity (MDCK): Non-toxic; Ratio CC50/IC50 [11]: >6.7; Activity (Cowpox virus): inactive; Activity (Influenza A virus): inactive; Activity (SARS-CoV): inactive; Activity (Human alphaherpesvirus 1): inactive; Activity (Human alphaherpesvirus 2): inactive; Activity (Enterovirus C): inactive; Activity (Chikungunya virus): inactive; Activity (Enterovirus A71): inactive; Activity (Cytomegalovirus): inactive; Activity (Pichinde virus): inactive; Activity (Human papillomavirus): inactive; Activity (LLC-MK2): Non-toxic; Activity (HEK293): Non-toxic; Activity [12]: Non-toxic
